Consider 3 compounds from ChEMBL document CHEMBL2151020, “JBIR-129 and -139, cytotoxic 34-membered polyol macrolides of microbial origin” (J Nat Prod, 2012).

The assay has as its system SK-OV-3. The assay is described as follows: Cytotoxicity against human SKOV3 cells after 72 hrs by WST8 assay. Format: functional, cell-based. Particulars: SK-OV-3, 72 h.
The term IC50 denotes the concentration that inhibits the measured activity by half. Read a low IC50 as greater potency. In the case of `CCC(O[C@H]1CC[C@H](O[C@H]2CC[C@H](O)[C@@H](C)O2)[C@@H](C)O1)C(C)C(O)C(C)C(O)C(C)C1C/C=C/C=C/C(O)CC(O)C(C)C(O)CC(O)C(C)C2CC(O)C(O)C(O)(CC(O[C@@H]3O[C@H](C)[C@@H](O)[C@H](O[C@H]4C[C@@H](O)[C@H](O)[C@@H](C)O4)[C@H]3O[C@@H]3O[C@H](C)[C@@H](O)[C@H](O)[C@H]3O)C(C)CCC(O)CC(O)C/C=C/C=C/C(=O)O1)O2` (stereo partly drawn), the IC50 is 300 nM.

As for `CCC(O[C@H]1CC[C@H](O[C@H]2CC[C@H](O)[C@@H](C)O2)[C@@H](C)O1)C(C)C(O)C(C)C(O)C(C)C1C/C=C/C=C/C(O)CC(O)C(C)C(O)CC(O[C@@H]2O[C@H](CO)[C@H](O)[C@H](O)[C@H]2NC(C)=O)C(C)C2CC(O)C(O)C(O)(CC(O[C@@H]3O[C@H](C)[C@@H](O)[C@H](O[C@H]4C[C@@H](O)[C@H](O)[C@@H](C)O4)[C@H]3O[C@@H]3O[C@H](C)[C@@H](O)[C@H](O)[C@H]3O)C(C)CCC(O)CC(O)C/C=C/C=C/C(=O)O1)O2` (stereo partly drawn), the IC50 is 400 nM. On to `COc1cccc2c1C(=O)c1c(O)c3c(c(O)c1C2=O)C[C@@](O)(C(=O)CO)C[C@@H]3O[C@H]1C[C@H](N)[C@H](O)[C@H](C)O1` [DOXORUBICIN], for which the IC50 came to 30 nM.
